The values below come from ChEMBL document CHEMBL3739396, “5-Aryl-1-imino-1-oxo-[1,2,4]thiadiazines” (ACS Med Chem Lett, 2015).

As usually defined, the IC50 is the midpoint of a concentration-inhibition curve.

For the assay, the target named is Beta-secretase 1 (Homo sapiens, UniProt P56817). Kind of assay: Inhibition of human BACE1 in HEK293 cells expressing APP assessed as decrease in amyloid beta-40 level after 18 to 20 hrs. Format: cell-based.
Beta-secretase 1, sequence (P56817 whole entry): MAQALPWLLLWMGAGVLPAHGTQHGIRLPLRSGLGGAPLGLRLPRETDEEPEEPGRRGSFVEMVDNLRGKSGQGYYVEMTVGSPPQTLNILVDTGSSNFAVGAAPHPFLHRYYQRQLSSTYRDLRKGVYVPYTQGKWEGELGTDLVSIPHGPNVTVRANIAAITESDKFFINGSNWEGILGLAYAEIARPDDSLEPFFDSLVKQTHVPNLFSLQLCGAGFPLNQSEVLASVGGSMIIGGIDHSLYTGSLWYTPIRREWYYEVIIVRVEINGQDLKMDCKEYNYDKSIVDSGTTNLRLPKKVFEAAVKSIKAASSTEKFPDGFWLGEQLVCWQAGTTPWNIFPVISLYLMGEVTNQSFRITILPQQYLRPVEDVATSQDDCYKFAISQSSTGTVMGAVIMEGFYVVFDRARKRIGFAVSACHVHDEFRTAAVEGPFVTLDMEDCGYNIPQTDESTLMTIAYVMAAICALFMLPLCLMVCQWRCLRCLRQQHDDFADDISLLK
Turning to `C[C@@]1(c2cc(NC(=O)c3ccc(C#N)cn3)ccc2F)C[S@]2(=O)=NCCCCN2C(N)=N1`, the IC50 stood at 2 nM.

As for `C[C@@]1(c2cc(-c3cc(-c4ncc(Cl)cn4)no3)ccc2F)C[S@]2(=O)=NCCCCN2C(N)=N1`, the IC50 was found to be 9.5 nM.

Consider `C[C@@]1(c2cc(-c3cn(-c4ccc(C#N)cn4)nn3)ccc2F)C[S@]2(=O)=NCCCCN2C(N)=N1`, for which the half-maximal inhibitory concentration (IC50) came out at 9.5 nM.
